Measurements reported in US20240207261A1, “METHODS FOR TREATING SMALL CELL LUNG CANCER AND OTHER NEUR[…]” (BOARD OF REGENTS, THE UNIVERSITY OF TEXAS SYSTEM, priority 2021, published 2024).
Values joined by “and” are separate entries in the source; they are usually repeats but may differ in a detail not shown here. Identical values can stand only once. Like-named read-outs stand apart in the source and are kept apart here.

Legend:
SCLC cell lines = assay: 96 hr proliferation assay, SCLC cell line panel (Example 1); format: cell-based, human and mouse; details: for IC50: 12 human-derived and 3 mouse model-derived SCLC cell lines
Method: In this preclinical study, the inventors investigated the therapeutic efficacy of lurbinectedin in large number of profiled SCLC cell lines representing the four SCLC subtypes (A, N, P and I) to identify candidate markers of drug sensitivity and resistance.
(§1) A 12 SCLC cell line panel representing SCLC-A, N, P and I subtypes, developed at MD Anderson Cancer Center, was screened against lurbinectedin in 96 hr proliferation assays (FIG. 2). Western Blotting: Three SCLC cell lines were treated with 1 nM of lurbinectedin for 24 and 48h and then subjected for protein isolation and Western blotting for pChK1, pRPA32, TH2AX.

human SCLC cell lines = assay: Cell proliferation assay (Cell Titer Glo), panel of 21 human SCLC cell lines; format: cell-based; details: for IC50: 21 human SCLC cell lines
Method: Human SCLC cell lines (21 cell lines) were purchased from ATCC. Cell lines were tested and authenticated by short tandem repeat profiling (DNA fingerprinting) and not cultured for greater than 6-months and were routinely tested for Mycoplasma contamination. Cell lines were cultured in either RPMI or HITES medium with 10% fetal bovine serum and 1% pen-strep, at 37° C. in a humidified chamber with 5% C02.
Cells were seeded in 96-well plates at 2,000 cells per well in triplicate for each cell line. After 24 hours, the cells in each well were treated with a lurbinectedin or with vehicle control. Four days later, proliferation was assayed by Cell Titer Glo (Promega, Fitchburg, WI). For single drug treatments, median inhibitory concentration (IC50) values were estimated by the Drexplorer software using date from duplicate experiments (14). For drug combinations, the area under the curve (AUC) of the observed (or experimental) effect of the combination was compared to the predicted additive effect. Data was subsequently presented as a ratio of the experimental effect relative to the predicted additive effect based on the Bliss Independence model, as previously reported (15). Using 10% above or below the predicted additive effect as a cut-off, the inventors then assigned the following groups: Observed/predicted<−0.1=greater than additive; […]; Observed/predicted <0.1 and >−0.1=additive.
Differences in IC50 values between subgroups were tested using ANOVA. Differences between SLFN11 high and low groups, defined using the bi-modality index (16), were tested using an un-paired t-test. Spearman rank correlation was used to assess the association between IC50 values and RPPA protein markers, The Benjamini & Hochberg (1995) method (17) was used to control false discovery rate (FDR). RPPA generates a quantitative measurement of expression of over 200 total and phosphorylated proteins, these values can be correlated to other variables such as IC50 values, and be compared between biomarker defined groups using standard statistical techniques. All analyses were performed using the R software.

DMS79 and H209 cells = assay: Proliferation assay after siRNA knockdown of SLFN11; format: cell-based, human; details: DMS79 and H209, versus parental and scrambled siRNA controls
Method: For SLFN11 gene silencing, pooled small interfering RNAs (siRNAs) targeting SLFN11 (L-016764-01-0005) or its corresponding scramble control (D-001810-10-05; GE Dharmacon) were transfected into DMS79 and H209 cells for 72 hours using Lipofectamine 2000 (Invitrogen) according to the manufacturer's protocol. The cells were then plated for 96h proliferation assays. Knock down efficiency was validated by Western blotting.

DMS79 xenografts = assay: Flank xenograft efficacy study, SLFN11 high; format: in vivo, mouse; details: 0.1 mg/kg i.v. once per week
Method: (§2) For the […] mouse model, 6-week-old female athymic nude mice (Envigo) were used. Animals were maintained in accordance with the Institutional Animal Care and Use Committee (IACUC) of The University of Texas MD Anderson Cancer Center and the NIH Guidelines for the Care and Use of Laboratory Animals. Experiments were performed under protocol: 00001191-RN03.
(§3) High SLFN11 protein expressing SCLC cell line DMS79 and low SLFN11 protein expressing cell line H865 were used for generation of xenografts. For subcutaneous injections, 1×10^6 SCLC cells were injected into one flank of each mouse with PBS: Matrigel (1:1, BD Biosciences). At an average tumor volume of 100 mm^3, mice were randomly allocated to three groups (n=5). Mice received either Vehicle (0.9% saline), lurbinectedin (0.1 mg/kg i.v. once per week), or cisplatin (6 mg/kg i.p. once per week). Tumor volumes were measured every other day using digital calipers.
(§4) Differences in IC50 values between subgroups were tested using ANOVA. Differences between SLFN11 high and low groups, defined using the bi-modality index were tested using an un-paired t-test. Spearman rank correlation was used to assess the association between IC50 values and RPPA protein markers, The Benjamini & Hochberg (1995) method was used to control false discovery rate (FDR). […]

H865 xenografts = assay: Flank xenograft efficacy study, SLFN11 low; format: in vivo, mouse; details: H865, lower SLFN11; 0.1 mg/kg i.v. once per week
Method: as §2, §3, §4

[1] = tested on: pChK1, pRPA32, TH2AX in SCLC cell lines; assay: Western blot of DNA damage markers (Example 1); format: cell-based; details: 1 nM for 24 or 48 hours, sensitive cell lines
Method: as §1

[2] = tested on: phospho CHK1(S345), phospho RPA32(S4/S8), phospho TH2AX in SCLC cells; assay: Western blot of replication stress and DNA damage markers (Example 2); format: cell-based, human; details: 0.9 nM, 24 and 48h, versus DMSO, all four subtypes
Method: (§5) Protein lysate were isolated from SCLC cells treated with 0.9 nM lurbinectedin or DMSO for 24 and 48h. Nitrocellulose membranes were incubated with primary antibodies (1:1000) for Human SLFN11 (Santa Cruz Biotechnology), phospho-(S345) CHK1 Cell Signaling Technologies (CST), phospho-(S4/S8) RPA32 (Bethyl laboratories), phospho-(S139) TH2AX (CST), cleaved caspase-3 (CST), phospho-(S366) STING (SAB Biotech), cGAS (CST), PD-L1(CST), GAPDH (Santa Cruz Biotechnology) and Vinculin (Sigma-Aldrich) overnight. Secondary anti-goat, anti-mouse (Santa Cruz Biotechnology) and anti-rabbit HRP linked antibodies (CST) were used and detected using the Chemidoc imaging system, image captured with Image Studio Version 3.1 software (BioRad).
Based on its mechanism of action, the inventors predicted that lurbinectedin would lead to increased replication stress and DNA damage in SCLC models. To test this, SCLC cells from all four subtypes were treated with lurbinectedin (0.9 nM/L) for 24 and 48h and markers of DNA damage and replication stress were assayed by Western blot.

[3] = tested on: cGAS, phospho STING, PD-L1 in SCLC cells; assay: Western blot of cGAS-STING pathway and PD-L1; format: cell-based, human; details: 24 and 48h
Method: as §5

SLFN11 = assay: Western blot of SLFN11 expression after treatment; format: cell-based, human
Method: as §5

metastatic SCLC = details: 37 of 102 patients; 95% CI 26.2-45.2; cited from earlier work
[4] = clinical testing; cited from earlier work

**Q.** Which results are given for `COc1ccc2[nH]c3c(c2c1)CCN[C@]31CS[C@@H]2c3c(OC(C)=O)c(C)c4c(c3[C@H](COC1=O)N1[C@@H]2[C@H]2c3c(cc(C)c(OC)c3O)C[C@@H]([C@@H]1O)N2C)OCO4` [lurbinectedin, Lurbinectedin]?
**A.** IC50 (SCLC cell lines; read-out: IC50 range): 0.08 to 1.84 nM; IC50 (SCLC cell lines; read-out: median IC50): 0.52 nM; IC50 of SLFN11-high versus SLFN11-low SCLC cells (SCLC cell lines; p=0.0035 by t-test): lower IC50 than SLFN11-low cells; subtype specific difference in sensitivity (SCLC cell lines; subtypes A, N, P and I): no subtype specific difference; IC50 (human SCLC cell lines; read-out: IC50 range): 0.06 to 1.83 nM; IC50 (human SCLC cell lines; read-out: median IC50): 0.46 nM; difference in in vitro activity between subtypes (human SCLC cell lines; SCLC-A, SCLC-N, SCLC-P, SCLC-I): no significant difference; fold change (FC) of IC50 between SLFN11 high and low cell lines (human SCLC cell lines; bimodal separation of SLFN11 by RPPA): 3.26 and 3.2; sensitivity after SLFN11 knockdown (DMS79 and H209 cells): reduced sensitivity; tumor growth versus vehicle (DMS79 xenografts): significantly reduced tumor growth; sensitivity of xenografts (H865 xenografts): significantly less sensitive; markers of DNA damage (TH2AX, ChK1, RPA32) [1]: increased markers of DNA damage; markers of replication stress phospho CHK1(S345) and phospho RPA32(S4/S8) [2]: increases in markers of replication stress; phospho STING and PD-L1 [3]: only observed in cell lines from the SCLC-P and SCLC-I subtypes; protein levels of cGAS ([3]; versus DMSO, all cell lines tested): induced an increase; change in SLFN11 levels (SLFN11; DMS-79): minimal decrease; change in SLFN11 levels (SLFN11; H1048): undetectable level; overall response by investigator assessment (metastatic SCLC): 35.2%; peak plasma concentration [4]: 148.2-153.8 ng/mL and 188.8-196.0 nM
